Measurements from US20260231948A1, “AN HERBICIDAL COMBINATION, COMPOSITION AND METHOD OF CONTROLLING WEEDS USING THE SAME” (priority 2023, published 2026).

Key:
[1] = system: Viola arvensis, Bromus spp., Lolium spp., Agropyron repens and Urtica urens; details: Hoechst et al., 1991; cited from earlier work
[2] = system: Brachiaria decumbens; assay: Greenhouse post-emergence herbicidal activity on Brachiaria decumbens; assay type: in vivo
Description: The expected efficacy of a combination of L-glufosinate ammonium and the other herbicides was calculated using the well-established Colby method. Any difference between the observed and “expected” efficacy could be attributed to synergy between the two compounds.
In the Colby method, the expected (or predicted) response of a combination of herbicides is calculated by taking the product of the observed response for each individual component of the combination when applied alone, divided by 100, and subtracting this value from the sum of the observed response for each component when applied alone. An unexpected enhancement in efficacy of the combination is then determined by comparing the observed response of the combination to the expected (or predicted) response as calculated from the observed response of each individual component alone. If the observed response of the combination is greater than the expected (or predicted) response, or stated conversely, if the difference between the observed and expected response is greater than zero, then the combination is said to be synergistic or unexpectedly effective (Colby, S. R., Weeds, 1967(15), p. 20-22). […]
The percentage efficacy was calculated at 7, 14, 21 and 28 days after application (DAA). The target weed was Brachiaria decumbens, and the concentration of the herbicide and the results are recorded Table 1.

Row | Structure (SMILES) | Control of weed species by glufosinate [1] | Observed efficacy (%) of isoxaflutole (60 g a.i./ha) ([2]; 7 DAA) | Observed efficacy (%) of isoxaflutole (60 g a.i./ha) ([2]; 14 DAA)
1 | CP(=O)(O)CCC(N)C(=O)O (racemic) [glufosinate, DL-homoalanin-4-yl(methyl)phosphinic acid] | either not combated, or only weakly combated | – | –
2 | CS(=O)(=O)c1cc(C(F)(F)F)ccc1C(=O)c1cnoc1C1CC1 [isoxaflutole] | – | 45% | 70%
